Assays:
DERL-7 (IL-2 2.5 ng/mL) [1] = experiment: percent inhibition of viability; higher = more inhibition; conditions: 72 h
[2] = tested on: normal primary NK cells, pool 1 (3 donors), resting (IL-2 0 ng/mL); experiment: as above; conditions: 72 h
KHYG-1 (IL-2 2.5 ng/mL) [3] = experiment: as above; conditions: 72 h
[4] = tested on: normal primary NK cells, pool 2 (3 donors) (IL-2 2.5 ng/mL); experiment: as above; conditions: 72 h
[5] = tested on: normal primary NK cells, pool 3 (3 donors) (IL-2 2.5 ng/mL); experiment: as above; conditions: 72 h
NKL (IL-2 2.5 ng/mL) [6] = experiment: as above; conditions: 72 h
KAI3 (IL-2 2.5 ng/mL) [7] = experiment: as above; conditions: 72 h
[8] = tested on: normal primary NK cells, pool 1 (3 donors) (IL-2 2.5 ng/mL); experiment: as above; conditions: 72 h
SNK-6 (IL-2 2.5 ng/mL) [9] = experiment: as above; conditions: 72 h
NK-92 (IL-2 2.5 ng/mL) [10] = experiment: as above; conditions: 72 h
NK-YS (IL-2 2.5 ng/mL) [11] = experiment: as above; conditions: 72 h
YT (IL-2 2.5 ng/mL) [12] = experiment: as above; conditions: 72 h
IMC-1 (IL-2 20 ng/mL) [13] = experiment: as above; conditions: 72 h
DERL-7 (IL-2 2.5 ng/mL) [14] = experiment: drug sensitivity score (DSS) (DSS units); higher = more sensitive; extreme values may be limits of the assay; conditions: 72 h
[15] = tested on: normal primary NK cells, pool 1 (3 donors), resting (IL-2 0 ng/mL); experiment: as above; conditions: 72 h
KHYG-1 (IL-2 2.5 ng/mL) [16] = experiment: as above; conditions: 72 h
[17] = tested on: normal primary NK cells, pool 2 (3 donors) (IL-2 2.5 ng/mL); experiment: as above; conditions: 72 h
[18] = tested on: normal primary NK cells, pool 3 (3 donors) (IL-2 2.5 ng/mL); experiment: as above; conditions: 72 h
NKL (IL-2 2.5 ng/mL) [19] = experiment: as above; conditions: 72 h
KAI3 (IL-2 2.5 ng/mL) [20] = experiment: as above; conditions: 72 h
[21] = tested on: normal primary NK cells, pool 1 (3 donors) (IL-2 2.5 ng/mL); experiment: as above; conditions: 72 h
SNK-6 (IL-2 2.5 ng/mL) [22] = experiment: as above; conditions: 72 h
NK-92 (IL-2 2.5 ng/mL) [23] = experiment: as above; conditions: 72 h
NK-YS (IL-2 2.5 ng/mL) [24] = experiment: as above; conditions: 72 h
YT (IL-2 2.5 ng/mL) [25] = experiment: as above; conditions: 72 h
IMC-1 (IL-2 20 ng/mL) [26] = experiment: as above; conditions: 72 h
[27] = tested on: normal NK cells expanded with K562-aAPC; experiment: as above; conditions: 72 h; IL-2 2.5 ng/mL
Procedure: (§1)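 Drug sensitivity and resistance testing on K562-aAPC-expanded normal NK cells: 5 concentrations (10-fold steps over a 10,000-fold range), 72 h at 37 °C, viability by CellTiter-Glo normalised to DMSO and benzethonium chloride controls; DSS from the fitted curve.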

[28] = tested on: normal NK cells expanded with K562-aAPC; experiment: percent inhibition of viability; higher = more inhibition; conditions: 72 h, IL-2 2.5 ng/mL
Procedure: as §1

C[C@@H]1CN(Cc2ccc(F)cc2)[C@@H](C)CN1C(=O)c1cc2c(C(=O)C(=O)N(C)C)cn(C)c2cc1Cl [Talmapimod] (max concentration tested 10000 nM)
percent inhibition of viability (DERL-7 (IL-2 2.5 ng/mL) [1]; 1 nM): -8.76% | percent inhibition of viability (DERL-7 (IL-2 2.5 ng/mL) [1]; 10 nM): 3.34% | percent inhibition of viability (DERL-7 (IL-2 2.5 ng/mL) [1]; 100 nM): -3.64% | percent inhibition of viability (DERL-7 (IL-2 2.5 ng/mL) [1]; 1000 nM): 2.18% | percent inhibition of viability (DERL-7 (IL-2 2.5 ng/mL) [1]; 10000 nM): -3.8% | percent inhibition of viability ([2]; 1 nM): -0.54% | percent inhibition of viability ([2]; 10 nM): -6.9% | percent inhibition of viability ([2]; 100 nM): 17.6% | percent inhibition of viability ([2]; 1000 nM): 15.2% | percent inhibition of viability ([2]; 10000 nM): 37% | percent inhibition of viability (KHYG-1 (IL-2 2.5 ng/mL) [3]; 1 nM): -8.74% | percent inhibition of viability (KHYG-1 (IL-2 2.5 ng/mL) [3]; 10 nM): -9.48% | percent inhibition of viability (KHYG-1 (IL-2 2.5 ng/mL) [3]; 100 nM): -3.07% | percent inhibition of viability (KHYG-1 (IL-2 2.5 ng/mL) [3]; 1000 nM): -9.07% | percent inhibition of viability (KHYG-1 (IL-2 2.5 ng/mL) [3]; 10000 nM): -3.04% | percent inhibition of viability ([4]; 1 nM): -0.88% | percent inhibition of viability ([4]; 10 nM): -7.3% | percent inhibition of viability ([4]; 100 nM): -3.09% | percent inhibition of viability ([4]; 1000 nM): 1.69% | percent inhibition of viability ([4]; 10000 nM): 0.02% | percent inhibition of viability ([5]; 1 nM): -3.75% | percent inhibition of viability ([5]; 10 nM): 4.83% | percent inhibition of viability ([5]; 100 nM): 4.73% | percent inhibition of viability ([5]; 1000 nM): 0.2% | percent inhibition of viability ([5]; 10000 nM): 1.78% | percent inhibition of viability (NKL (IL-2 2.5 ng/mL) [6]; 1 nM): -6.18% | percent inhibition of viability (NKL (IL-2 2.5 ng/mL) [6]; 10 nM): -3.36% | percent inhibition of viability (NKL (IL-2 2.5 ng/mL) [6]; 100 nM): 7.54% | percent inhibition of viability (NKL (IL-2 2.5 ng/mL) [6]; 1000 nM): 9.7% | percent inhibition of viability (NKL (IL-2 2.5 ng/mL) [6]; 10000 nM): 22.9% | percent inhibition of viability (KAI3 (IL-2 2.5 ng/mL) [7]; 1 nM): -4.84% | percent inhibition of viability (KAI3 (IL-2 2.5 ng/mL) [7]; 10 nM): 8.7% | percent inhibition of viability (KAI3 (IL-2 2.5 ng/mL) [7]; 100 nM): 21.6% | percent inhibition of viability (KAI3 (IL-2 2.5 ng/mL) [7]; 1000 nM): 21.2% | percent inhibition of viability (KAI3 (IL-2 2.5 ng/mL) [7]; 10000 nM): 32.1% | percent inhibition of viability ([8]; 1 nM): -13.6% | percent inhibition of viability ([8]; 10 nM): -10.8% | percent inhibition of viability ([8]; 100 nM): -4.95% | percent inhibition of viability ([8]; 1000 nM): -6.75% | percent inhibition of viability ([8]; 10000 nM): 2.92% | percent inhibition of viability (SNK-6 (IL-2 2.5 ng/mL) [9]; 1 nM): -0.46% | percent inhibition of viability (SNK-6 (IL-2 2.5 ng/mL) [9]; 10 nM): -0.9% | percent inhibition of viability (SNK-6 (IL-2 2.5 ng/mL) [9]; 100 nM): -3.03% | percent inhibition of viability (SNK-6 (IL-2 2.5 ng/mL) [9]; 1000 nM): -23.7% | percent inhibition of viability (SNK-6 (IL-2 2.5 ng/mL) [9]; 10000 nM): -10.1% | percent inhibition of viability (NK-92 (IL-2 2.5 ng/mL) [10]; 1 nM): -13.6% | percent inhibition of viability (NK-92 (IL-2 2.5 ng/mL) [10]; 10 nM): -14.2% | percent inhibition of viability (NK-92 (IL-2 2.5 ng/mL) [10]; 100 nM): -7.08% | percent inhibition of viability (NK-92 (IL-2 2.5 ng/mL) [10]; 1000 nM): -0.77% | percent inhibition of viability (NK-92 (IL-2 2.5 ng/mL) [10]; 10000 nM): 6.94% | percent inhibition of viability (NK-YS (IL-2 2.5 ng/mL) [11]; 1 nM): -5.34% | percent inhibition of viability (NK-YS (IL-2 2.5 ng/mL) [11]; 10 nM): -2.3% | percent inhibition of viability (NK-YS (IL-2 2.5 ng/mL) [11]; 100 nM): 1.96% | percent inhibition of viability (NK-YS (IL-2 2.5 ng/mL) [11]; 1000 nM): 6.17% | percent inhibition of viability (NK-YS (IL-2 2.5 ng/mL) [11]; 10000 nM): 14.5% | percent inhibition of viability (YT (IL-2 2.5 ng/mL) [12]; 1 nM): -3.64% | percent inhibition of viability (YT (IL-2 2.5 ng/mL) [12]; 10 nM): -1.4% | percent inhibition of viability (YT (IL-2 2.5 ng/mL) [12]; 100 nM): 4.73% | percent inhibition of viability (YT (IL-2 2.5 ng/mL) [12]; 1000 nM): 5.29% | percent inhibition of viability (YT (IL-2 2.5 ng/mL) [12]; 10000 nM): 14.3% | percent inhibition of viability (IMC-1 (IL-2 20 ng/mL) [13]; 1 nM): -2.4% | percent inhibition of viability (IMC-1 (IL-2 20 ng/mL) [13]; 10 nM): -5.13% | percent inhibition of viability (IMC-1 (IL-2 20 ng/mL) [13]; 100 nM): -5.16% | percent inhibition of viability (IMC-1 (IL-2 20 ng/mL) [13]; 1000 nM): -10.4% | percent inhibition of viability (IMC-1 (IL-2 20 ng/mL) [13]; 10000 nM): 0.72% | drug sensitivity score (DERL-7 (IL-2 2.5 ng/mL) [14]): 0 | drug sensitivity score [15]: 4.01 | drug sensitivity score (KHYG-1 (IL-2 2.5 ng/mL) [16]): 0 | drug sensitivity score [17]: 0 | drug sensitivity score [18]: 0 | drug sensitivity score (NKL (IL-2 2.5 ng/mL) [19]): 1.47 | drug sensitivity score (KAI3 (IL-2 2.5 ng/mL) [20]): 6.42 | drug sensitivity score [21]: 0 | drug sensitivity score (SNK-6 (IL-2 2.5 ng/mL) [22]): 0 | drug sensitivity score (NK-92 (IL-2 2.5 ng/mL) [23]): 0 | drug sensitivity score (NK-YS (IL-2 2.5 ng/mL) [24]): 0.37 | drug sensitivity score (YT (IL-2 2.5 ng/mL) [25]): 0.18 | drug sensitivity score (IMC-1 (IL-2 20 ng/mL) [26]): 0 | drug sensitivity score [27]: 0 | percent inhibition of viability ([28]; 1 nM): -9.71% | percent inhibition of viability ([28]; 10 nM): -4.89% | percent inhibition of viability ([28]; 100 nM): -9.38% | percent inhibition of viability ([28]; 1000 nM): -4.26% | percent inhibition of viability ([28]; 10000 nM): -10.1%

— the supplement of paper PMC5908809
